Test results as given in US20090117190A1, “SUSTAINED-RELEASE PREPARATION” (Nissan Chemical Industries, Ltd., priority 2005, published 2009).
Where a name gives a salt, the structure may show the parent alone.

Key:
[1] = absorbability (bioavailability) of oral formulations in a dog; conditions: in vivo, during fasting
Excerpt: (§1) On the other hand, the present inventors have heretofore conducted various studies on oral formulations of 4-bromo-6-[3-(4-chlorophenyl)propoxy]-5-(3-pyridylmethylamino)-3(2H)-pyridazinone (hereinafter referred to simply as Compound A) or its salt.

[2] = solubility in water as a function of pH; type: physicochemical
Excerpt: as §1

[3] = elution test (paddle method, Japanese Pharmacopoeia Disintegration Test Solutions 1 and 2); type: physicochemical
Protocol: The test conditions are as follows. Test solutions: Japanese Pharmacopoeia Disintegration Test Solution 1 (pH 1.2) 900 mL, Japanese Pharmacopoeia Disintegration Test Solution 2 900 mL (pH 6.8)+0.1% Tween 80 Paddle rotational speed: 50 rpm Liquid temperature: 37° C.

| Structure (SMILES) | bioavailability [1] | solubility in water, dependence on pH ([2]; boundary in the vicinity of pH4.0) | solubility in water ([2]; in the vicinity of the pH in the intestine) | difference in the elution rate between Solution 1 (pH 1.2) and Solution 2 (pH 6.8) containing 0.1% Tween 80 ([3]; 900 mL, 37° C., paddle 50 rpm) | elution rate ([3]; Japanese Pharmacopoeia Disintegration Test Solution 2 (pH 6.8) + 0.1% Tween 80, after 6 hours, 37° C., paddle 50 rpm) | solubility indicated by the elution test ([3]; in the vicinity of the pH in the intestine (Solution 2 + 0.1% Tween 80)) |
| --- | --- | --- | --- | --- | --- | --- |
| O=c1[nH]nc(OCCCc2ccc(Cl)cc2)c(NCc2cccnc2)c1Br [Compound A, 4-bromo-6-[3-(4-chlorophenyl)propoxy]-5-(3-pyridylmethylamino)-3(2H)-pyridazinone] | ~10% | decreases in the vicinity of pH4.0 as a boundary | hardly soluble in water | – | – | – |
| O=c1[nH]nc(OCCCc2ccc(Cl)cc2)c(NCc2cccnc2)c1Br [hydrochloride of Compound A, 4-bromo-6-[3-(4-chlorophenyl)propoxy]-5-(3-pyridylmethylamino)-3(2H)-pyridazinone] | – | – | – | substantial difference | < 20% | hardly soluble |
